Results published in patent publication US12358875B2, “N-(phenyl)-indole-3-sulfonamide derivatives and related compounds as GPR17 modulators for treating CNS disorders such as multiple sclerosis” (UCB Pharma GMBH, priority 2019, dated 2025).

Assays:
GPR17 [1] = target: T1, GPR17 (Homo sapiens, UniProt Q13304); conditions: WO 2005/103291; cited from earlier work
Target sequence in this assay (Q13304 whole entry, species assumed): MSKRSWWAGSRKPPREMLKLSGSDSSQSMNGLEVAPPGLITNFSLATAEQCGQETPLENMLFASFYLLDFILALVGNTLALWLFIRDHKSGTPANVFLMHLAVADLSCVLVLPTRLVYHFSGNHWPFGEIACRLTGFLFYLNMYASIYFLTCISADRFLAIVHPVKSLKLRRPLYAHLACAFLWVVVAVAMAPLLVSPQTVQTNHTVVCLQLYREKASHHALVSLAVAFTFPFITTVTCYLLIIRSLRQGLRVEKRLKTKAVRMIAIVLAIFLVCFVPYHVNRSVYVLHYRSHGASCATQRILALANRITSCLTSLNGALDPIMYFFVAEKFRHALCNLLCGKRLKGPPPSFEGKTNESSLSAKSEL

GPR17 [2] = target: T1, GPR17; assay: Calcium mobilization functional assay (Ca2+ assay), inhibition of MDL29,951 response in CHO hGPR17; type: cell-based; parameters: host or cells: Flp-In T-REx CHO; conditions: CHO hGPR17, 50 nM MDL29,951 agonist; read-out: Ca^2+ assay pIC50 (converted)
Experimental: (§1) Flp-In T-REx CHO cells stably expressing human GPR17 receptor (CHO hGPR17) from Evi Kostenis' lab (Bonn University, Germany) were cultured at 37° C. in a humidified atmosphere of 5% CO2. Cells were grown in DMEM with Nutrient Mixture F-12 supplemented with hygromycin B (500 μg/ml) and blasticidin (30 μg/ml). Expression from the Flp-In locus was induced by treatment with doxycycline (1 μg/ml) for 16-20 h prior assays.
GPR17 is a G-protein coupled receptor. GPR17 activation triggers Gq-type G-protein signaling resulting in endoplasmic reticulum calcium (Ca^2+) stores release in cytosol which can be measured using Calcium 5 dye, a fluorescent indicator dye of cytosolic Ca^2+ levels. The compounds of the present invention were assessed either in the Ca^2+ assay or in the GPR17 cAMP assay, described further below.
CHO hGPR17 were defrosted and seeded at a density of 20,000 cells per well into black 384-well plates with clear bottom. Cells were incubated overnight at 37° C. in a humidified atmosphere of 5% CO2. […] Fluorescent signal relative to cytosolic Ca^2+ concentration was recorded over time at room temperature in FLIPR Tetra reader. […] Inhibitory effects of varying concentrations test compounds were measured and resulting pIC50s were determined. […]
Target sequence in this assay (Q13304 29-367 limits assumed): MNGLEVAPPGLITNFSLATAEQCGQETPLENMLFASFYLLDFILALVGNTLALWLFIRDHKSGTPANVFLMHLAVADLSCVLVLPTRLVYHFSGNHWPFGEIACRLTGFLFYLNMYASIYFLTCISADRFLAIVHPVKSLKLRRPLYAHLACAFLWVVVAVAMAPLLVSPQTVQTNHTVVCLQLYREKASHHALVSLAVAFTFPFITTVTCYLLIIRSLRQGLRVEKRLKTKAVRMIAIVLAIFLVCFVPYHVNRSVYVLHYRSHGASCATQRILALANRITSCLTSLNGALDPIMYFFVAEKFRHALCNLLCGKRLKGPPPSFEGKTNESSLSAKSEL

GPR17 [3] = target: T1, GPR17; assay: cAMP accumulation functional assay (HTRF), Schild analysis against MDL29,951 in CHO hGPR17; type: cell-based; parameters: host or cells: Flp-In T-REx CHO; conditions: CHO hGPR17, Schild analysis vs MDL29,951, 5 μM forskolin; read-out: cAMP assay pA2 (converted)
Experimental: as §1
Target sequence in this assay (Q13304 29-367 limits assumed): as above
GPR17 activation can also recruit Gi-type G-protein signaling, resulting in a decrease of intracellular cyclic adenosine monophosphate (cAMP). Intracellular cAMP changes can be measured using the HTRF cAMP dynamic assay kit from CisBio (Codolet, France). Using homogenous time-resolved fluorescence technology (HTRF), the assay is based on competition between native cAMP produced by cells and cAMP labelled with the dye d2. The tracer binding was determined by an anti-cAMP antibody labeled with cryptate.
CHO hGPR17 were detached with PBS containing EDTA and dispatched in black 384-well plates with 5,000 cells per well. Cells were first incubated for 30 minutes at room temperature in HBSS Hepes (pH 7.4) containing vehicle or varying concentrations of test GPR17 antagonist/inverse agonist compounds. Then, a dose response curve of MDL29,951 GPR17 agonist (typically from 10^−5M to 10^−10M) was added on vehicle and on each test GPR17 antagonist/inverse agonist compound concentration in a final volume of 20 μL HBSS Hepes buffer (pH 7.4) containing 1% DMSO, 5 μM forskolin and 0.1 mM IBMX. After 60 minutes incubation at room temperature, the reaction is terminated and the cells lysed by adding the d2 detection reagent and the cryptate reagent in 10 μL lysis buffer each according to manufacturer's instructions. After 60 minutes incubation, changes in cAMP concentrations are measured according to manufacturer's instructions using an Envision plate reader with laser excitation. All incubations were performed in duplicate. Data was analyzed using GraphPad Prism software using the 4-parameter logistic equation to measure MDL29,951 pEC50s in absence and presence of GPR17 antagonist/inverse agonist test compounds. Dose ratio (DR) were plotted against antagonist concentrations and Schild analysis provided estimated affinity pA2 of GPR17 antagonist/inverse agonist test compounds.
The activities of the Example compounds tested are depicted in the table below. The activity ranges A, B and C refer to pA2 values in the cAMP assay as follows: “A”: pA2 6.5≤x<7.5, “B”: pA2 7.5≤x<8.5, “C”: 8.5≤pA2.

For `NCC(=O)CCC(=O)O` [Example 5-ALA, 5 amino levulinic acid], the “amounts needed in the assays (GPR17 activation)” value (GPR17 [1]) is given as “three digit micromolar range”.
With `Cn1cc(S(=O)(=O)Nc2ccc(C#N)cc2F)c2ccc(Cl)cc21` [Example I-1, 6-chloro-N-(4-cyano-2-fluorophenyl)-1-methylindole-3-sulfonamide] the IC50 (GPR17 [2]) was 31.6 to 316 nM.
In the case of `COc1nc(NS(=O)(=O)c2cn(C)c3cc(Cl)ccc23)c(F)cc1Cl` [Example I-2, 6-chloro-N-(5-chloro-3-fluoro-6-methoxypyridin-2-yl)-1-methylindole-3-sulfonamide], the IC50 (GPR17 [2]) is reported as 31.6 to 316 nM.
Molecule `COc1nc(OC(F)F)c(F)cc1NS(=O)(=O)c1cn(CCO)c2nc(Cl)ccc12` [Example I-35, 6-chloro-N-[6-(difluoromethoxy)-5-fluoro-2-methoxypyridin-3-yl]-1-(2-hydroxyethyl)pyrrolo[2,3-b]pyridine-3-sulfonamide] has a Kb (GPR17 [3]) of at most 3.16 nM.
With `[N-]=[N+]=NCCn1cc(S(=O)(=O)Nc2cc(F)c(Br)cc2F)c2ccc(Cl)cc21` [Example I-36, 1-(2-azidoethyl)-N-(4-bromo-2,5-difluorophenyl)-6-chloroindole-3-sulfonamide] the Kb (GPR17 [3]) was 31.6 to 316 nM.
In the case of `NCc1[nH]cc(CCC(=O)O)c1CC(=O)O` [PBG, porphobilinogen], the “amounts needed in the assays (GPR17 activation)” value (GPR17 [1]) is listed as “mM range”.
